Patent US12721823B2, “Methods and compositions for treatment of low circulating testosterone conditions” (University of Florida Research Foundation, Inc., priority 2021, dated 2026)

Key:
Format in all cases: in vivo, rat
Sprague-Dawley rats = test: Serum FSH, LH, testosterone (Tn), estradiol (E2) by ELISA and testis weight
Excerpt: Sixty-four G1 rats (32 control and 32 sevoflurane exposed) and 122 G2 rats, which were not exposed to sevoflurane anesthesia and were subjected to animal facility rearing only, were studied. The G1 rats were sequentially evaluated in the EPM starting on ~P125, PPI of the acoustic startle response on ~P135 and MWM starting ~on P145 (FIG. 1). One half of these animals were sacrificed on ≥P160 to collect trunk blood, brain and testis and ovarian tissues for further analyses. The rest of these animals were physically restrained for 30 min on ≥P160 to measure corticosterone responses, followed by collection of tissue samples (as above) for further analyses. The G2 rats were evaluated in the EPM starting on P60 and PPI of startle on P70 (FIG. 1). One half of these animals were sacrificed on ≥P95 to collect trunk blood and brain tissue samples for further analyses, and the rest of these animals were tested for the corticosterone responses to physical restraint for 30 min on ≥P95 before collecting the trunk blood and brain tissue samples. After decapitation, the trunk blood samples were collected and centrifuged at 4° C., 1000 g for 15 min, and then kept at -80° C. for hormone assays. The brain was removed from the skull onto ice pads. The hypothalamus was isolated by making an anterior cut at the level of the optic chiasm, a posterior coronal section anterior to the mammillary bodies, two sagittal cuts parallel to the lateral ventricles and a dorsal horizontal cut at the level of the anterior commissure, as described elsewhere.^19 The hippocampus was isolated from the respective blocks. All tissue samples were placed in vials filled with RNAlater solution (Invitrogen, Carlsbad, CA) and then stored at -80° C. Testis tissue was removed and washed with 0.9% saline before weighing. Sperm were isolated from the caudal epididymis of adult males into PBS with 1% BSA at 37° C. using a swim-up assay. After settling for 30 min, sperm-containing supernatant was centrifuged for 5 min at 4000 rpm. Sperm pellets were stored at -80° C. After separation from the adipose tissues, ovaries were stored at -80° C. Hormone analyses in serum samples isolated from G1 and G2 rats were performed using commercially available kits according to the manufacturer's instructions. Serum concentrations of FSH (CSB-E06869r) and LH (CSB-E12654r) were quantified using ELISA kits (CUSABIO TECHNOLOGY LLC, Houston, TX, USA). Serum Tn and E2 concentrations were measured using ELISA kits (582701, Cayman Chemical Company, Ann Arbor, MI, USA and E[…]-100, Calbiotech, Spring Valley, CA, USA, respectively).

Kcc2 gene promoter = test: Bisulfite sequencing of CpG sites in the Kcc2 gene promoter; settings: for DNA methylation in the Kcc2 gene promoter: vs con-M*con-F; for methylation of CpG sites in the Kcc2 gene promoter: vs control
Experimental: Genomic DNA was extracted from the sperm pellet and ovaries of adult G1 rats and from hippocampal and hypothalamic tissues of G2 rats using the DNeasy Blood and Tissue kit (Qiagen, Hilden, Germany). The sodium bisulfite conversion was performed with EZ DNA Methylation kits (Zymo Research, Irvine, CA) following the manufacturer's instructions. The primers (Kcc2: forward: […] (SEQ ID NO: 1); reverse: […] (SEQ ID NO: 2) were designed for the bisulfite-converted DNA sequences, using previously published sequences. 5 PCR amplification was performed with HotStar Taq (Qiagen, Hilden, Germany). Amplicons were cloned into pCR4-TOPO vector with the TOPO TA cloning kit for sequencing (Life Technologies, Carlsbad, CA). Miniprep was performed on each positive clone using ZR Plasmid Miniprep kit (Zymo Research, Irvine, CA). Sanger sequencing was done by Genewiz (South Plainfield, NJ, USA) using M13R primers. The DNA methylation status of all CpG sites was analyzed using Benchling Molecular Biology 2.0 Software (Benchling, San Francisco, CA). The bisulfite sequencing analysis of the Kcc2 DNA was performed only in G2 male progeny of con-M*con-F and sevo-M*sevo-F matings.

[1] = system: Crh, Grs, Erα, Erβ, aromatase, Gnrh, Nkcc1 and Kcc2 mRNA; test: qRT-PCR of mRNA levels in hypothalamus and hippocampus
Experimental: Levels of mRNA for Nkcc1 and Kcc2 in the hypothalamus and hippocampus, for Crh, Erα, Erβ, aromatase, GnRH in the hypothalamus, and for Grs in the hippocampus were analyzed via reverse transcription-PCR (qRT-PCR) in a StepOnePlus™ Real-Time PCR System (Applied Biosystems, Foster City, CA) as previously described. 5 RNA was extracted from the samples using an RNeasy Plus Kit (Qiagen, Valencia, CA), reverse transcribed with a high-capacity cDNA reverse transcription kit (Bio-Rad Laboratories, Hercules, CA), and then analyzed via qRT-PCR. Taqman probes specific for the above genes were obtained from Applied Biosystems (Carlsbad, CA): Crh (Rn01462137_m1), Gr (Rn00561369_m1), Erα (Rn01430446_m1), Erβ (Rn00562610_m1), aromatase (Rn00567222_m1), Gnrh (Rn00562754_m1), Nkcc1 (Rn00582505_m1) and Kcc2 (Rn00592624_m1). Data were normalized to glyceraldehyde-3-phosphate dehydrogenase (Gapdh) mRNA (Rn01775763_g1). Gene expression was calculated using the ΔΔCT method and data are presented as relative fold change from that of control animals.

[2] = G2 males, parental exposure to sevoflurane
[3] = G1 female rats, control vs sevoflurane-exposed
[4] = G1 female rats, more than 3 months after exposure
[5] = G1 male rats, more than 3 months after exposure
[6] = G2 female rats, parental sevoflurane exposure
[7] = G2 females, parental sevoflurane exposures
[8] = G2 males, all four treatment groups

testis weight (Sprague-Dawley rats; G1 male rats, vs control): significantly reduced
testis weight (Sprague-Dawley rats; [2]): no significant treatment effects
hippocampal Kcc2 mRNA levels [1, 3]: similar
hippocampal Nkcc1 mRNA levels [1, 3]: similar
Kcc2 mRNA levels in the hypothalamus [1, 4]: unaltered
Nkcc1 mRNA levels in the hypothalamus [1, 4]: unaltered
hypothalamic levels of Erα mRNA ([1]; G1 female rats, vs control): not different
hypothalamic levels of Erβ mRNA ([1]; G1 female rats, vs control): slightly, though significantly increased
hypothalamic levels of Gnrh mRNA ([1]; G1 female rats, vs control): no significant treatment effects
increase in hypothalamic aromatase mRNA ([1]; G1 female rats, vs control): did not achieve statistical significance
hypothalamic Crh mRNA levels ([1]; G1 male rats, 2 hours after the restraint, vs control): increased
Kcc2 mRNA levels in the hippocampus [1, 5]: significantly reduced
Kcc2 mRNA levels in the hypothalamus [1, 5]: decreased
Nkcc1 mRNA levels in the hippocampus [1, 5]: but not Nkcc1 mRNA levels
Nkcc1 mRNA levels in the hypothalamus [1, 5]: normal
Gr mRNA in the hippocampus ([1]; G1 male rats, vs control): reduced
hypothalamic levels of Era mRNA ([1]; G1 male rats, vs control): increased
hypothalamic levels of Erβ mRNA ([1]; G1 male rats, vs control): decreased
hypothalamic levels of Gnrh mRNA ([1]; G1 male rats, vs control): increased
hypothalamic levels of aromatase mRNA ([1]; G1 male rats, vs control): significantly increased
hippocampal Gr mRNA levels [1, 6]: no significant between-subjects effects
hypothalamic Crh mRNA [1, 6]: no significant between-subjects effects
Kcc2 mRNA level in the hippocampus [1, 7]: not significant
Kcc2 mRNA levels in the hypothalamus [1, 7]: not significant
Nkcc1 mRNA level in the hippocampus [1, 7]: not significant
Nkcc1 mRNA levels in the hypothalamus [1, 7]: not significant
hippocampal Kcc2 mRNA levels ([1]; G2 male offspring of both exposed parents): reduced
hippocampal Kcc2 mRNA levels ([1]; G2 male offspring of exposed fathers and control mothers): reduced
hypothalamic Kcc2 mRNA levels ([1]; G2 male progeny of sevoflurane exposed fathers and mothers, vs offspring of control parents): lower levels
Crh mRNA in the hypothalamus [1, 8]: not different
Gr mRNA levels in the hippocampus [1, 8]: not different
Nkcc1 mRNA levels in the hippocampus ([1]; G2 males, parental sevoflurane exposure): no significant effects
Structure (SMILES): FCOC(C(F)(F)F)C(F)(F)F [sevoflurane, 1,1,1,3,3,3-hexafluoro-2-(fluoromethoxy)propane]
serum levels of E2 (estradiol) (Sprague-Dawley rats; G1 female rats, vs control): not different
serum levels of FSH (Sprague-Dawley rats; G1 female rats, vs control): no significant treatment effects
serum levels of LH (Sprague-Dawley rats; G1 female rats, vs control): no significant treatment effects
serum levels of Tn (testosterone) (Sprague-Dawley rats; G1 female rats, vs control): not different
serum levels of Tn (testosterone) (Sprague-Dawley rats; G1 male rats, more than 3 months after sevoflurane exposure, vs control): significantly increased
serum levels of FSH (Sprague-Dawley rats; G1 male rats, vs control): not different
serum levels of LH (Sprague-Dawley rats; G1 male rats, vs control): increased
serum levels of Tn (Sprague-Dawley rats; [2]): no significant treatment effects
DNA methylation in the Kcc2 gene promoter (Kcc2 gene promoter; hippocampus of G2 male progeny of both exposed parents, CpG site 1): increased DNA methylation
DNA methylation in the Kcc2 gene promoter (Kcc2 gene promoter; hippocampus of G2 male progeny of both exposed parents, CpG site 2): increased DNA methylation
DNA methylation in the Kcc2 gene promoter (Kcc2 gene promoter; hippocampus of G2 male progeny of both exposed parents, CpG site 3): increased DNA methylation
DNA methylation in the Kcc2 gene promoter (Kcc2 gene promoter; hypothalamus of G2 male progeny of both exposed parents, CpG site 1): increased DNA methylation
DNA methylation in the Kcc2 gene promoter (Kcc2 gene promoter; hypothalamus of G2 male progeny of both exposed parents, CpG site 2): increased DNA methylation
DNA methylation in the Kcc2 gene promoter (Kcc2 gene promoter; hypothalamus of G2 male progeny of both exposed parents, CpG site 3): increased DNA methylation
methylation of CpG sites in the Kcc2 gene promoter (Kcc2 gene promoter; ovarian tissue of G1 female rats, CpG site 1): increased methylation
methylation of CpG sites in the Kcc2 gene promoter (Kcc2 gene promoter; ovarian tissue of G1 female rats, CpG site 2): increased methylation
methylation of CpG sites in the Kcc2 gene promoter (Kcc2 gene promoter; sperm of G1 male rats, CpG site 1): increased methylation
methylation of CpG sites in the Kcc2 gene promoter (Kcc2 gene promoter; sperm of G1 male rats, CpG site 2): increased methylation
hippocampal Gr mRNA levels ([1]; G1 female rats, vs control): Neither hypothalamic Crh mRNA levels (FIG. 4C) nor hippocampal GrmRNA levels (FIG. 4D) were different
hypothalamic Crh mRNA levels ([1]; G1 female rats, vs control): Neither hypothalamic Crh mRNA levels (FIG. 4C) nor hippocampal GrmRNA levels (FIG. 4D) were different
